From patent US4882314A, “A composition and method of treating selected malignant conditions” (priority 1987, dated 1989)

Tests used:
primary liver tumor = test: Experiment 5: clinical treatment of primary liver tumor; assay type: in vivo, human; conditions: 200 mg/day/man intravenous infusion
Experimental: 4,6-O-benzylidene-D-glucopyranose was continuously administered at a dosage of 200 mg/day/man by intravenous infusion.

stomach cancer = test: Experiment 6: clinical treatment of stomach cancer; assay type: in vivo, human; conditions: 200 mg/day/man intravenous infusion
Experimental: Patient: Stomach cancer of the terminal stage, the stomach extracted but many metastasized lesion in abdominal cavity, peritonitis cartinimatosa observed. […] The preparation for infusion was prepared according to Example 1. […] However, the patient died about 3 months after the start of administration.

tongue cancer = test: Experiment 3: clinical treatment of tongue cancer; assay type: in vivo, human
[1] = stability and solubility, general statement; assay type: physicochemical
colon carcinoma = test: Experiment 2: clinical treatment of colon carcinoma with metastatic cancer in the liver; assay type: in vivo, human
Experimental: Person, colon carcinoma with metastatic cancer of 13 cm×10 cm×8 cm in the liver, abdominal dropsy observed.
The patient was subjected to abdominal surgery on June 4, 1979 but extraction of the cancer was impossible and the incised abdoment was immediately sutured.
Administration of 4,6-O-benzylidene-D-glucopyranose at a dosage of 20 mg/day/man (in the form of a physiological saline solution having an active ingredient concentration of 4 mg/ml) by intraperitoneal injection was stated on Aug. 25, 1979. The preparation for injection was prepared according to Example 1. In about one month, the abdominal dropsy disappeared, appetite improved and the overall body condition improved.
A C.T. scan of the liver of the patient before the start of the intraperitoneal injection, that was taken on Aug. 25, 1979, is shown in FIG. 1-A (the metastic lesion (A) appears on the left-side of the tomogram), and a C.T. scan of the same region taken on Dec.

[2] = system: peritonitis cartinimatosa; test: Experiment 4: clinical treatment of peritonitis carcinomatosa; assay type: in vivo, human; conditions: 200 mg/day/man intravenous infusion
Experimental: Administration of 4,6-O-benzylidene-D-glucopyranose at a dosage of 200 mg/day/man by intravenous infusion was started for the treatment of the patient.

[3] = system: colon carcinoma, tongue cancer, peritonitis carcinomatosa, liver cancer and stomach cancer; test: clinical experiments, summary statement; assay type: in vivo, human; conditions: intravenous, about 20 to about 200 mg/day/man
[4] = acute toxicity, oral administration or subcutaneous injection in mice; assay type: in vivo; conditions: mouse, in vivo; oral administration in mice
Experimental: (§1) The LD50 (mg/kg) value of the compound which is the active ingredient of the present invention, for example, in case of oral administration in mice is about 3000 mg/kg.

mice = test: as above; assay type: in vivo; conditions: subcutaneous injection or oral administration in mice
Experimental: as §1

W2K.11 cells = test: SV40 test: inhibition of proliferation of SV40-transformed malignant cells; assay type: cell-based, C3H mice; conditions: Mus musculus, read-out: proliferation inhibition ratio
Experimental: The SV40 (Simian Virus 40) method was adopted for determination of the carinostatic activity. According to this method, normal kidney cells of mice are transformed to malignant cells by the oncogenic virus SV40, the malignant cells are cultured, the test compound is added to the culture medium, the ratio of inhibition of proliferation of the cells is calculated and the carcinostatic activity is determined based on the calculated value. This method has recently been widely used because accurate results can be obtained [see proceedings of the Society for Experimental Biology and Medicine, 114, pages 721-727 (1963)].
The W2K.11 cells obtained by a malignant transformation of normal kidney cells of C3H mice by the oncogenic virus SV40 were used as cells for the test, and they were cultured according to the following method.
(1) Preparation of Culture Medium:
9.4 g of Eagle MEM Medium (manufactured by Nissui Seiyaku K.K.) was dissolved in 900 ml of distilled water and the solution was sterilized at 120° C., under pressure for 15 minutes. After cooling the sterilized solution, 100 ml of calf serum and 3 to 5 ml of a 10% aqueous solution of sodium hydrogencarbonate sterilized separately at 115° C. under pressure for 15 minutes were added to the solution to adjust the pH to 7.1 to 7.2. Just before the resulting culture medium was used, 10 ml of a L-glutamine solution (2.92 g/100 ml) filtered through A millipore filter was added thereto.
(2) Preparation of Test Cells:
The frozen test cells preserved in a deep freezer (-80° C.) with dimethyl sulfoxide added to the above culture medium to a final concentration of 10% were […] at room temperature and subjected to centrifugal separation under 670×g for 5 minutes. The supernatant was discarded and the precipitated cells were suspended in 50 ml of the culture medium. Then, the culture medium was transferred to a Roux flask and culturing was conducted at 37° C. The cells began to grow while adhering to the bottom of the flask, and sufficient growth was obtained in 3 to 4 days. […]

[5] = toxicity / side effects on continuous administration; assay type: in vivo
[6] = 200 mg/day/man intravenous infusion, after 10 days
[7] = 20 mg/day/man intraperitoneal injection, about 3 months
[8] = 20 mg/day/man intraperitoneal injection, about one month

SMILES: OC1O[C@@H]2COC(c3ccccc3)O[C@H]2[C@H](O)[C@H]1O (stereo partly drawn) [4,6-O-benzylidene-D-glucopyranose]
- abdominal dropsy (primary liver tumor; about one month): reduction in the abdominal dropsy
- liver tumor (primary liver tumor; about one month): prominent contraction of the liver tumor
- patient outcome (primary liver tumor; terminal stage): died after about four months of treatment
- abdominal dropsy (stomach cancer; one month): disappeared
- subjective symptoms (stomach cancer; one month): remarkable improvement
- time to death after start of administration (stomach cancer; terminal stage): about 3 months
- histopathology of the granular substance released from the submaxillar tumor (tongue cancer; 200 mg/day/man intravenous infusion): composed of histopathologically keratinized squamous cells
- malignant lesion of the tongue (photographs FIGS. 2-A, 3-A vs 2-B, 3-B) (tongue cancer; 200 mg/day/man intravenous infusion, Oct. 15 to Nov. 19, 1979): disappeared
- submaxillar tumor (tongue cancer; [6]): softened and began to release a granular substance
- tumor on the tongue (tongue cancer; [6]): began to disappear
- patient outcome (tongue cancer; 200 mg/day/man intravenous infusion, terminal stage): died after about one month of treatment
- stability [1]: very stable
- water solubility [1]: water-soluble
- CEA unit value (the hepatic function test) (colon carcinoma; [7]): remarkably reduced
- metastatic lesion in the liver (colon carcinoma; [7]): almost disappeared
- metastatic lesion in the liver (colon carcinoma; 20 mg/day/man intraperitoneal injection, about 4 months, C.T. scan FIG. 1-A vs FIG. 1-B): completely disappeared
- abdominal dropsy (colon carcinoma; [8]): disappeared
- appetite (colon carcinoma; [8]): improved
- metastatic lesion in the liver (C.T. scan) (colon carcinoma; [8]): contraction of the metastatic lesion in the liver had started
- overall body condition (colon carcinoma; [8]): improved
- patient outcome (colon carcinoma; after treatment, 20 mg/day/man intraperitoneal injection): has lead a normal life since then
- patient outcome [2]: died of paritonitis periforative about one month after the start of treatment
- abdominal dropsy ([2]; one week): disappeared
- cancer metastasized to the skin ([2]; one week): contraction of the cancer metastasized to the skin
- condition of the disease ([2]; one week): subjective and objective improvements
- clinical effect [3]: prominent effect
- LD50 [4]: ~3000 mg/kg
- acute toxicity compared with other carcinostatic agents (mice): much lower than that of other carinostatic agents
- inhibition at 125 µg/mL (W2K.11 cells; 72 h, 125 mcg/ml): 23%
- inhibition at 250 µg/mL (W2K.11 cells; 72 h, 250 mcg/ml): 37%
- inhibition at 500 µg/mL (W2K.11 cells; 500 mcg/ml, 72 hours of treatment): 72%
- toxicity ([5]; continuous administration at the above-mentioned dosage): no toxicity is observed
- toxicity, general statement ([5]; in vivo): lowly toxic
- excretion from a living body ([5]; when administered): readily excreted from a living body
- side effects ([5]; when administered): no side effects are caused

SMILES: O=c1[nH]c(=O)n(C2CCCO2)cc1F (stereo not shown) [FT 207, reference compound]
- effect of prior treatment (colon carcinoma; FT 207 treatment with cobalt 60 radiotherapy, initiated before the operation): no effect had been observed

SMILES: N#C[C@H](O[C@@H]1O[C@H](CO[C@@H]2O[C@H](CO)[C@@H](O)[C@H](O)[C@H]2O)[C@@H](O)[C@H](O)[C@H]1O)c1ccccc1 [laetrile, amygdalin, reference compound]
- effect of prior treatment (tongue cancer; prior conventional chemotherapy, BCG, radiotherapy and laetrile): no effect could be observed
